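These data come from cells grown in 96-well plates and exposed to compound for 48 hours at five concentrations. TGI marks complete inhibition of growth.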
How the values were obtained:
Assay in all cases: DTP human tumour cell line panel, 48 h
NCI-H23 lung = test system: NCI-H23 lung
UACC-257 melanoma = test system: UACC-257 melanoma
BT-549 breast = test system: BT-549 breast
IGROV1 ovarian = test system: IGROV1 ovarian
SK-MEL-2 melanoma = test system: SK-MEL-2 melanoma
MOLT-4 leukemia = test system: MOLT-4 leukemia
SNB-19 CNS = test system: SNB-19 CNS
EKVX NSCLC = test system: EKVX NSCLC
M14 melanoma = test system: M14 melanoma
A498 renal = test system: A498 renal
SR leukemia = test system: SR leukemia
HCT-15 colon = test system: HCT-15 colon
HT29 colon = test system: HT29 colon
MCF7 breast = test system: MCF7 breast
MDA-N = test system: MDA-N
HS 578T breast = test system: HS 578T breast
A549 NSCLC = test system: A549 NSCLC
SN12C renal = test system: SN12C renal
TK-10 renal = test system: TK-10 renal
OVCAR-5 ovarian = test system: OVCAR-5 ovarian
MDA-MB-231 breast = test system: MDA-MB-231 breast
HOP-92 NSCLC = test system: HOP-92 NSCLC
UO-31 renal = test system: UO-31 renal
SK-MEL-5 melanoma = test system: SK-MEL-5 melanoma
U251 CNS = test system: U251 CNS
786-0 renal = test system: 786-0 renal
HOP-62 NSCLC = test system: HOP-62 NSCLC
NCI-H460 lung = test system: NCI-H460 lung
SW-620 colon = test system: SW-620 colon
SNB-75 CNS = test system: SNB-75 CNS
K-562 leukemia = test system: K-562 leukemia
COLO 205 colon = test system: COLO 205 colon
NCI-H226 lung = test system: NCI-H226 lung
SK-MEL-28 melanoma = test system: SK-MEL-28 melanoma
HL-60(TB) leukemia = test system: HL-60(TB) leukemia
ACHN renal = test system: ACHN renal
RPMI-8226 leukemia = test system: RPMI-8226 leukemia
HCC-2998 colon = test system: HCC-2998 colon
OVCAR-8 ovarian = test system: OVCAR-8 ovarian
RXF 393 renal = test system: RXF 393 renal
PC-3 prostate = test system: PC-3 prostate
UACC-62 melanoma = test system: UACC-62 melanoma
MALME-3M melanoma = test system: MALME-3M melanoma
HCT-116 colon = test system: HCT-116 colon
KM12 colon = test system: KM12 colon
CCRF-CEM leukemia = test system: CCRF-CEM leukemia
SK-OV-3 ovarian = test system: SK-OV-3 ovarian
DU-145 prostate = test system: DU-145 prostate
OVCAR-4 ovarian = test system: OVCAR-4 ovarian
SF-268 CNS = test system: SF-268 CNS
NCI-H522 lung = test system: NCI-H522 lung
MDA-MB-435 = test system: MDA-MB-435
T-47D breast = test system: T-47D breast
CAKI-1 renal = test system: CAKI-1 renal
LOX IMVI melanoma = test system: LOX IMVI melanoma
OVCAR-3 ovarian = test system: OVCAR-3 ovarian
SF-295 CNS = test system: SF-295 CNS
SF-539 CNS = test system: SF-539 CNS

Measured: TGI

CCOC(=O)C1CCCCc2sc(N)c(C#N)c21 (centres undefined)
not listed: CCRF-CEM leukemia | SK-OV-3 ovarian | DU-145 prostate | OVCAR-4 ovarian | SF-268 CNS | NCI-H522 lung | MDA-MB-435 | T-47D breast | CAKI-1 renal | LOX IMVI melanoma | OVCAR-3 ovarian | SF-295 CNS | SF-539 CNS
> 100 µM: all other assays above

Cc1ccc2c(c1)CC1(C2=O)[C@H](c2ccccc2)C2C(=O)c3ccc(C)cc3C2[C@H]1c1ccccc1 (some centres undefined)
not listed: SK-MEL-2 melanoma | HS 578T breast | SK-MEL-5 melanoma | RPMI-8226 leukemia
> 100 µM: all other assays above

From PubChem BioAssay (NCI)
